Reference: ChEMBL document CHEMBL4373743, “Selective apoptosis-inducing activity of synthetic hydrocarbon-stapled SOS1 helix with d-amino acids in H358 cancer cells expressing KRASG12C” (Eur J Med Chem, 2020)
Active and inactive are the calls of the source. No cut-off for these calls is given here. Bridge positions count the residues as written; N and C are the ends. Square brackets hold non-standard residues; d marks the D form. Peptide text beside a SMILES is read from it. S5 = C=CCCC[C@](C)(N)C(=O)O

Legend:
[1] = system: A549; assay: Induction of apoptosis in human A549 cells harboring KRAS G12S mutant assessed as necrotic cells at 10 uM incubated for 24 hrs by Annexin V-FITC/PI staining based flow cytometric analysis (reference value: 0.16%); type: functional
[2] = system: NCI-H358; assay: Induction of apoptosis in human NCI-H358 cells harboring KRAS G12C mutant assessed as increase in caspase3 protein level at 40 uM incubated for 24 hrs by Western blot analysis; type: functional, cell-based
[3] = system: GTPase KRas (Homo sapiens), P01116 [G12C]; assay: Binding affinity to biotinylated N-terminal His6-tagged recombinant KRAS G12C mutant (unknown origin) assessed as dissociation constant by BLI method
Chain of GTPase KRas (Homo sapiens), P01116 [G12C] (P01116 whole entry G12C): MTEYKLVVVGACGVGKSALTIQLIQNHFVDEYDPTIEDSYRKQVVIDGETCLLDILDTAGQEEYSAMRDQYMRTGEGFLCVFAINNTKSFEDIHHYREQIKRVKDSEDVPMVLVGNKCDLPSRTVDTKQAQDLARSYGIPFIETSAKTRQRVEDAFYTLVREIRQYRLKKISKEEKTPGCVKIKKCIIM

[4] = system: A549; assay: Induction of apoptosis in human A549 cells harboring KRAS G12S mutant assessed as viable cells at 2.5 uM incubated for 24 hrs by Annexin V-FITC/PI staining based flow cytometric analysis (reference value: 68.3%); type: functional; conditions: A549, 24 h, read-out: Activity
[5] = system: A549; assay: Induction of apoptosis in human A549 cells harboring KRAS G12S mutant assessed as early apoptotic cells at 20 uM incubated for 24 hrs by Annexin V-FITC/PI staining based flow cytometric analysis (reference value: 6.09%); type: functional
[6] = system: NCI-H358; assay: Induction of apoptosis in human NCI-H358 cells harboring KRAS G12C mutant assessed as necrotic cells at 10 uM incubated for 24 hrs by Annexin V-FITC/PI staining based flow cytometric analysis (reference value: 0.28%); type: functional
[7] = system: A549; assay: Induction of cell cycle arrest in human A549 cells harboring KRAS G12S mutant assessed as as reduction in cyclin B1 protein expression at 40 uM incubated for 24 hrs by Western blot analysis; type: functional, cell-based
[8] = system: NCI-H358; assay: Induction of cell cycle arrest in human NCI-H358 cells harboring KRAS G12C mutant assessed as reduction in cyclin B1 protein expression at 40 uM incubated for 24 hrs by Western blot analysis; type: functional, cell-based
[9] = system: A549; assay: Induction of apoptosis in human A549 cells harboring KRAS G12S mutant assessed as decrease in bcl2 protein level at 40 uM incubated for 24 hrs by Western blot analysis; type: functional, cell-based
[10] = system: NCI-H358; assay: Induction of apoptosis in human NCI-H358 cells harboring KRAS G12C mutant assessed as necrotic cells at 20 uM incubated for 24 hrs by Annexin V-FITC/PI staining based flow cytometric analysis (reference value: 0.28%); type: functional
[11] = system: A549; assay: Induction of apoptosis in human A549 cells harboring KRAS G12S mutant assessed as necrotic cells at 2.5 uM incubated for 24 hrs by Annexin V-FITC/PI staining based flow cytometric analysis (reference value: 0.16%); type: functional
[12] = system: NCI-H358; assay: Induction of apoptosis in human NCI-H358 cells harboring KRAS G12C mutant assessed as early apoptotic cells at 2.5 uM incubated for 24 hrs by Annexin V-FITC/PI staining based flow cytometric analysis (reference value: 4.34%); type: functional
[13] = system: NCI-H358; assay: Induction of cell cycle arrest in human NCI-H358 cells harboring KRAS G12C mutant assessed as accumulation at G2/M phase incubated for 24 hrs by PI staining based flow cytometric analysis; type: functional

Structure (SMILES): CC[C@H](C)[C@H](NC(=O)CNC(=O)[C@H](Cc1ccccc1)NC(=O)[C@H](Cc1ccccc1)NC(=O)[C@H](CCCNC(=N)N)NC(=O)[C@H](CCCNC(=N)N)NC(C)=O)C(=O)N[C@@]1(C)CCC/C=C\CCC[C@@](C)(C(=O)N[C@@H](CC(C)C)C(=O)N[C@@H](CCCCN)C(=O)N[C@H](C(=O)N[C@@H](CCC(=O)O)C(=O)N[C@@H](CCC(=O)O)C(=O)NCC(=O)N[C@@H](CC(N)=O)C(=O)O)[C@@H](C)O)NC(=O)[C@H](CC(N)=O)NC(=O)[C@H](CC(=O)O)NC(=O)[C@H]([C@@H](C)O)NC(=O)[C@H](CC(C)C)NC(=O)[C@H](CC(=O)O)NC1=O (Ac-RRFFGI[S5]DLTDN[S5]LKTEEGN-OH; staple (Z) 7-13)
- Activity [1]: 0.5%
- Activity [2]: Active
- Kdiss [3]: 6.37 ×10⁻³ /s
- viability at 2.5 µM [4]: 60.4%
- Activity [5]: 1.68%
- Activity [6]: 0.26%
- Activity [7]: inactive
- Activity [8]: Active
- Activity [9]: inactive
- Activity [10]: 0.21%
- Activity [11]: 0.4%
- Activity [12]: 4.22%
- Activity [13]: Dose-dependent effect
